We go through 76 molecules from publication PMC12040169 (PLOS Biology, 2025).

This series in a line: in vitro. The conditions noted are these: human, hela cells, % viability.
On to `O=C(O)CCNS(=O)(=O)c1ccc2[nH]c(=O)[nH]c2c1` [CBK266906], for which the viability (commonly a read-out of living cells in per cent, often relative to untreated cells) at 28.5 h, 10 µM was determined as 91%.
Regarding `O=C(NNC(=O)C1CCN(S(=O)(=O)c2ccc(Br)cc2)CC1)NC12CC3CC(CC(C3)C1)C2` [CBK266907], the viability at 28.5 h, 10 µM amounted to 94.5%.
In the case of `Cc1cc(F)ccc1S(=O)(=O)N(C(=O)c1ccncc1)c1ccc(OC(=O)c2ccncc2)cc1` [CBK266909] it was 91.1%.
Under `CN(C)CCCNC(=S)NCc1ccc(Cl)cc1` [CBK266910] stands 97.3%; under `CCC(C)c1ccc(OCC(=O)Nc2ccc3[nH]c(=O)[nH]c3c2)cc1` (stereo not shown) [CBK266911], 105%.
In the case of `S=C(NCCc1ccccc1)NCCn1cc(Cl)cn1` [CBK266912] it was 103%; in that of `COc1ccc(Cl)cc1S(=O)(=O)N1CCN(Cc2ccc3c(c2)OCO3)CC1` [CBK266913], 98.5%.
As for `S=C(NCCn1cc(Br)cn1)NCc1ccco1` [CBK266914], the viability at 28.5 h, 10 µM is 95.5%.
In the case of `O=C(CC(NC1CCCCC1)C(=O)O)Nc1cccc(Cl)c1` (stereo not shown) [CBK266916] it was 98.5%; in that of `NS(=O)(=O)c1ccc(NC(S)=Nc2ccc(S(=O)(=O)N3CCCC3)cc2)cc1` [CBK266918], 80.3%.
Under `COc1ccc(Cl)cc1NC(=S)NNC(=O)c1cc(C)nc2ccccc12` [CBK266920] stands 50.5%; under `CC(C)CNC(=S)NNC(=O)CC(C)O` (stereo not shown) [CBK266921], 93.9%.
Under `COc1ccc(C(=O)CCC(=O)Nc2cccnc2)c(OC)c1` [CBK266923] stands 105%; under `Cc1ccccc1NC(=O)CC(C(=O)O)N(C)C` (stereo not shown) [CBK266924], 103%.
For `COC(=O)c1c(NC(=S)NCc2ccc(S(N)(=O)=O)cc2)sc2c1CCC2` [CBK266926], the viability at 28.5 h, 10 µM was 88.5%.
Consider `NS(=O)(=O)c1ccc(NC(=S)NNS(=O)(=O)c2ccc(Br)cc2)cc1` [CBK266928], for which the viability at 28.5 h, 10 µM was 111%.
Regarding `COc1ccc(NC(=O)Nc2nn(Cc3ccc(Cl)cc3Cl)cc2Br)cc1OC` [CBK266930], the viability at 28.5 h, 10 µM turned out to be 101%.
For the molecule `CN(CC(=O)N1CCC(Cc2ccccc2)CC1)S(=O)(=O)c1ccc2ccccc2c1` [CBK266931], the viability at 28.5 h, 10 µM was 78.2%.
In the case of `CS(=O)(=O)N(CC(=O)Nc1ccc(S(=O)(=O)N2CCCCCC2)cc1)c1ccc(F)cc1` [CBK266932], the viability at 28.5 h, 10 µM stood at 91.8%.
In the case of `COC(=O)c1cc(C)sc1NC(=S)Nc1ccn(Cc2ccc(Br)cc2)n1` [CBK266934] it was 99.6%; in that of `COC(=O)c1c(NC(=S)Nc2cnccn2)sc2c1CCC2` [CBK266935], 90.3%; in that of `S=C(Nc1ncn(Cc2ccc(Cl)c(Cl)c2)n1)Nc1ccc(Br)cc1Cl` [CBK266940], 92.7%.
In the case of `CC(=O)c1ccc(NC(=O)NNS(=O)(=O)c2ccc(F)cc2)cc1` [CBK266944] it was 109%; in that of `COc1ccc(-c2c(C)nn3c(=O)c(Cc4ccccc4)c(C)[nH]c23)cc1` [CBK266951], 94.2%; in that of `CN(C)C(CC(=O)Nc1cccc(Cl)c1Cl)C(=O)O` (stereo not shown) [CBK266952], 107%.
In the case of `Cc1cc(=O)oc2cc(NC(=S)NNC(=O)C3CCN(Cc4ccc(F)cc4Cl)CC3)ccc12` [CBK266953] it was 99.4%.
In the case of `COc1ccc(NC(=O)CC(C(=O)O)N2CCOCC2)cc1` (stereo not shown) [CBK266955], the viability at 28.5 h, 10 µM worked out at 101%.
Under `O=C(O)Cc1ccc(NC(=S)Nc2ccc([N+](=O)[O-])cc2)cc1` [CBK266959] stands 98.7%; under `O=C(Nc1ccc(N2CCN(Cc3ccccc3)CC2)cc1)c1nc[nH]n1` [CBK266960], 105%.
Under `Cn1nc([N+](=O)[O-])nc1Sc1nnnn1-c1ccc(C(=O)O)cc1` [CBK266961] stands 109%.
Under `COC(=O)c1c(NC(=S)Nc2ccc(Br)cn2)sc2c1CCC(C)C2` (stereo not shown) [CBK266962] stands 94.6%; under `Cc1nn(C)c(C(=O)NNC(=S)Nc2ccc(S(N)(=O)=O)cc2)c1Br` [CBK266963], 92.5%; under `CN(C)CCNC(=S)Nc1ccc([N+](=O)[O-])cc1` [CBK266964], 97.7%.
As for `CCn1ncc(CN2CCN(C(=S)Nc3ccccc3C(F)(F)F)CC2)c1C` [CBK266968], the viability at 28.5 h, 10 µM was determined as 96.2%.
Under `NS(=O)(=O)c1ccc(NC(=S)NNC(=O)c2cc(Br)ccc2Cl)cc1` [CBK266970] stands 89.3%.
Under `O=C(CN1C(=O)c2ccccc2S1(=O)=O)Nc1ccccc1C(=O)N1CCOCC1` [CBK266975] stands 93.3%.
In the case of `O=C(CC(NC1CCCC1)C(=O)O)Nc1ccc(F)cc1` (stereo not shown) [CBK266976], the viability at 28.5 h, 10 µM came out at 93.9%.
Under `CC(=O)c1ccc(NC(=O)COn2nnc3ccc([N+](=O)[O-])cc32)cc1` [CBK266980] stands 101%; under `Cc1[nH]c2ccccc2c1Cc1n[nH]c(=S)n1Cc1ccccc1` [CBK266985], 99.5%; under `COc1ccc(OCC(=O)Nc2ccc3c(c2)nc2n3CCN(Cc3ccccc3)C2)cc1` [CBK266989], 97.6%.
In the case of `Cc1ccc(-c2c(C(=O)NNC(=S)NCc3ccco3)csc2C)cc1` [CBK266992] it was 96.3%; in that of `CN(C)Cc1cc(C(C)(C)C)cc(CN(C)C)c1O` [CBK266994], 98.4%; in that of `Cc1c(Cc2ccccc2)c(=O)oc2c(CN3CCCC(C)C3)c(O)ccc12` (stereo not shown) [CBK266995], 93.2%.
Under `CC(=O)c1cccc(NC(=O)Nc2cccc(S(=O)(=O)N3CCOCC3)c2)c1` [CBK266996] stands 89.9%; under `O=c1[nH]c2ccc(S(=O)(=O)Nc3ccc(-c4ccccc4)cc3)cc2[nH]1` [CBK266999], 99.8%.
For the molecule `O=C(O)C(CC(=O)N1CCOCC1)NCc1ccccc1` (stereo not shown) [CBK267000], the viability at 28.5 h, 10 µM is 100%.
Take `Cc1cc(C)c(NS(=O)(=O)c2ccc(NC(=S)Nc3ccc(S(N)(=O)=O)cc3)cc2)c(C)c1` [CBK267005]: the viability at 28.5 h, 10 µM came out at 94.2%.
Under `CC(C)(O)C#Cc1ccc(C(=O)N2CCN(C/C=C/c3ccccc3)CC2)s1` [CBK267007] stands 99.5%; under `O=C(CC(C(=O)O)N1CCOCC1)Nc1ccccc1` (stereo not shown) [CBK267008], 111%.
Regarding `Cc1nnc(N2C(=O)c3oc4ccc(Cl)cc4c(=O)c3C2c2cccnc2)s1` (stereo not shown) [CBK267010], the viability at 28.5 h, 10 µM came to 105%.
Under `COc1cc([N+](=O)[O-])cc2cc(C(=O)NNC(=O)c3ccccc3Cl)c(=O)oc12` [CBK267011] stands 92.8%; under `Cc1cc(C)c(C)c(S(=O)(=O)Nc2ccc(O)c(Sc3nc[nH]n3)c2)c1C` [CBK267012], 66.6%.
In the case of `CC(C)(C)NS(=O)(=O)c1ccc(NC(=O)COc2ccc3ccccc3c2Br)cc1` [CBK267015] it was 96.5%; in that of `O=C(CSCc1ccc(Cl)cc1)Nc1ccc(S(=O)(=O)N2CCCCCC2)cc1` [CBK267017], 112%.
In the case of `COc1ccc(NC(=O)Nc2nn(Cc3c(F)cccc3Cl)cc2Cl)cc1OC` [CBK267019] it was 89.3%.
`NS(=O)(=O)c1ccc(NC(=S)Nc2nn(Cc3ccc(Cl)cc3Cl)cc2Cl)cc1` [CBK267020]: the viability at 28.5 h, 10 µM is 90.6%.
Under `S=C(NCc1ccco1)Nc1nn(Cc2ccc(Cl)cc2Cl)cc1Cl` [CBK267021] stands 80.7%; under `Cc1cc(C)nc(Nc2n[nH]c(Cc3ccccc3)n2)n1` [CBK267023], 96.3%.
Under `NS(=O)(=O)c1ccc(NC(=S)NNC(=O)C2c3ccccc3Oc3ccccc32)cc1` [CBK267024] stands 99.2%.
Under `CCN1CCN(C(=O)c2ccccc2N(Cc2ccccc2)S(C)(=O)=O)CC1` [CBK267028] stands 101%.
On to `Cc1nn(C)c(C)c1CN1CCN(C(=S)Nc2ccc(S(N)(=O)=O)cc2)CC1` [CBK267030], for which the viability at 28.5 h, 10 µM is 94.1%.
Under `O=C(Nc1ccc2c(c1)nc1n2CCN(Cc2ccccc2)C1)NC1CCCCC1` [CBK267033] stands 109%; under `O=C(Cn1cc(/C=C/c2[nH]c(=O)[nH]c(=O)c2[N+](=O)[O-])c2ccccc21)Nc1ccc2c(c1)OCO2` [CBK267036], 80.8%; under `CC(=O)c1ccc(-c2ccc(/C=C\c3[nH]c(=O)[nH]c(=O)c3[N+](=O)[O-])o2)cc1` [CBK267038], 90.7%.
Under `COC(=O)c1c(NC(=S)NCc2ccc(S(N)(=O)=O)cc2)sc2c1CCC(C)C2` (stereo not shown) [CBK267039] stands 97.6%.
In the case of `O=C(CCc1ccc(O)c(O)c1)NNC(=S)Nc1ccc(F)cc1F` [CBK267041] it was 114%; in that of `O=C(Nc1cccc(C(F)(F)F)c1)Nc1cccc(S(=O)(=O)N2CCOCC2)c1` [CBK267043], 99%; in that of `Cc1cc(=O)oc2cc(NC(=S)N3CCN(C/C=C/c4ccccc4)CC3)ccc12` [CBK267045], 92%.
For `CN1CCN(C(=O)CN(C)S(=O)(=O)c2ccc3ccccc3c2)CC1` [CBK267053], the viability at 28.5 h, 10 µM was 96.4%.
In the case of `COC(=O)c1c(NC(=S)NCc2ccccn2)sc(C(=O)N(C)C)c1C` [CBK267055] it was 98.8%.
`CC(NS(=O)(=O)c1ccc(CCC(=O)O)cc1)c1ccccc1` (stereo not shown) [CBK267058]: the viability at 28.5 h, 10 µM stood at 88.1%.
Under `O=C(NCc1ccc2c(c1)OCO2)C1CN(S(=O)(=O)c2ccccc2)CCN1S(=O)(=O)c1ccccc1` (stereo not shown) [CBK267059] stands 102%; under `COc1ccccc1CNC(=O)c1ccc(Cl)c(S(=O)(=O)N2CCOCC2)c1` [CBK267060], 69.3%.
Under `Cc1ccc(-c2c(C(=O)NNC(=S)NCC3CCCO3)csc2C)cc1` (stereo not shown) [CBK267062] stands 86.6%.
In the case of `COc1ccc(Cl)cc1NC(=S)NCCn1cc(Cl)cn1` [CBK267063] it was 89.8%; in that of `COc1cc([N+](=O)[O-])ccc1NC(=S)NCc1ccc(S(N)(=O)=O)cc1` [CBK267067], 100%.
